The assay addresses T1, human TREM2 (Homo sapiens, UniProt Q9NZC2).
T1 construct: expressed in transfected cells; host or cells: HEK293T (HEK293T-hTREM2 cells)
As to the kind of experiment: TREM2 agonist potency by cellular phosphorylation of Spleen Tyrosine Kinase (Syk), AlphaLisa, HEK293T-hTREM2 cells. Type of assay: cell-based. The method, boiled down:
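HEK293T cells co-expressing human TREM2 and DAP12, plated 20–24 h before use. Compounds applied 45 min at room temperature in assay buffer, then cells lysed and phospho-Syk quantified by AlphaLisa. Percent activation from a standard curve; EC50 from a four-parameter variable-slope fit.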
(In general: Bead proximity is the source of the signal in Alpha formats.)

[1] abbreviates: hTREM2 EC50 Data (HEK293 Cells), Syk phosphorylation, AlphaLisa, read-out: hTREM2 EC50.

SMILES strings stand for the structures. Like-named read-outs stand apart in the source and are kept apart here. Some results are limits rather than exact numbers.

T1 sequence (Q9NZC2 19-230): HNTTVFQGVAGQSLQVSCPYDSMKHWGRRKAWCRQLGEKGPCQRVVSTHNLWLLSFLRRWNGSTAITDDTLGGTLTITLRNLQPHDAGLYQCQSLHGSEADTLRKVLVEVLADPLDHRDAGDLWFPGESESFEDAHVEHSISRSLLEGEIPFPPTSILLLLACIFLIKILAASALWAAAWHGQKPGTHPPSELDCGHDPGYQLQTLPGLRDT
T1 sequence (O43914 22-113 partner): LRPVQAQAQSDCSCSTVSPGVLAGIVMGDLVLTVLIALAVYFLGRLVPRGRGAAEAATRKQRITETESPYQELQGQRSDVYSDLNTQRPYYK

By EC50 is commonly meant the midpoint of the concentration-response curve. On to `Cc1nc2nc([C@H]3CCO[C@@H](c4ccc(=O)[nH]c4)C3)nc(C34CC(C(F)(F)F)(C3)C4)c2nc1C(F)(F)F` [Example 355], for which, under setting [1], the EC50 is under 0.1 µM. On the same count and under the same terms, with `Cc1nc2nc([C@@H]3CCO[C@H](c4ccc(=O)n(C)c4)C3)nc(C34CC(C(F)F)(C3)C4)c2nc1C` [Example 32, 5-[(2S,4R)-4-[4-[3-(difluoromethyl)-1-bicyclo[1.1.1]-pentanyl]-6,7-dimethyl-pteridin-2-yl]tetrahydropyran-2-yl]-1-methyl-pyridin-2-one] the figure was 0.1 to 0.5 µM. Same read-out and setting: the value for `[2H]C([2H])([2H])n1cc([C@H]2C[C@@H](c3nc(C45CC(C(F)(F)F)(C4)C5)c4nc(OC)c(C)nc4n3)CCO2)ccc1=O` [Example 147, 5-((2R,4S)-4-(6-methoxy-7-methyl-4-(3-(trifluoromethyl)-bicyclo[1.1.1]pentan-1-yl)pteridin-2-yl)tetrahydro-2H-pyran-2-yl)-1-(methyl-d3)pyridin-2(1H)-one] was under 0.1 µM; that for `Cc1nc2nc(N3C[C@@H](C)O[C@@H](c4ccc(=O)n(C5CC5)c4)C3)nc(C34CC(C(F)(F)F)(C3)C4)c2nc1C1COC1` [Example 183, 1-cyclopropyl-5-((2S,6R)-6-methyl-4-(7-methyl-6-(oxetan-3-yl)-4-(3-(trifluoromethyl)bicyclo[1.1.1]pentan-1-yl)pteridin-2-yl)morpholin-2-yl)pyridin-2(1H)-one] was under 0.1 µM; that for `Cc1nc2nc([C@@H]3CCO[C@H](c4ccc(=O)n(C)c4)C3)nc(-c3ccc(C(F)(F)F)c(F)c3F)c2nc1C` [Example 19] was under 0.1 µM.

`Cc1nc2nc([C@H]3CCO[C@@H](c4ccc(=O)n(CC#N)c4)C3)nc(C34CC(C(F)(F)F)(C3)C4)c2nc1C` [Example 86, 2-[5-[(2R,4S)-4-[6,7-dimethyl-4-[3-(trifluoromethyl)-1-bicyclo[1.1.1]pentanyl]pteridin-2-yl]tetrahydropyran-2-yl]-2-oxo-1-pyridyl]acetonitrile]: the EC50 under setting [1] was under 0.1 µM. The same measure, in the same setting: with `Cc1nc2nc([C@H]3CCO[C@@H](c4ccc(=O)n(C)c4)C3)nc(C34CCC(C(C)(F)F)(CC3)C4)c2nc1C` [Example 60, 5-((2R,4S)-4-(4-(4-(1,1-difluoroethyl)bicyclo[2.2.1]heptan-1-yl)-6,7-dimethylpteridin-2-yl)tetrahydro-2H-pyran-2-yl)-1-methylpyridin-2(1H)-one] the figure was under 0.1 µM. Same read-out and setting: with `Cc1nc2nc([C@@H]3CCO[C@H](c4ccc(=O)n(C)c4)C3)nc(C3CCC(F)(F)CC3)c2nc1C` [Example 29, 5-((2S,4R)-4-(4-(4,4-difluorocyclohexyl)-6,7-dimethylpteridin-2-yl)tetrahydro-2H-pyran-2-yl)-1-methylpyridin-2 (1H)-one] the figure was 0.1 to 0.5 µM.

Turning to `C[C@@H]1CN(c2nc(-c3ccc(F)cc3F)c3sc(N(C)C)nc3n2)C[C@H](c2ccc(=O)n(N)c2)O1` [Example 174, 1-amino-5-[(2S,6R)-4-[7-(2,4-difluorophenyl)-2-(dimethylamino)thiazolo[4,5-d]pyrimidin-5-yl]-6-methyl-morpholin-2-yl]pyridin-2-one], the EC50 under setting [1] is under 0.1 µM. Same read-out and setting: the value for `C=CCNn1cc([C@H]2C[C@@H](c3nc(C45CC(C(F)(F)F)(C4)C5)c4nc(C)c(C)nc4n3)CCO2)ccc1=O` [Example 207, 1-(allylamino)-5-[(2R,4S)-4-[6,7-dimethyl-4-[3-(trifluoromethyl)-1-bicyclo[1.1.1]pentanyl]pteridin-2-yl]tetrahydropyran-2-yl]pyridin-2-one] was under 0.1 µM.

On to `Cc1nc2nc(C3CCO[C@@H](c4ccc(=O)n(-c5cscn5)c4)C3)nc(C34CC(C(F)(F)F)(C3)C4)c2nc1C` (mixture of isomers) [Example 109, 5-((2R)-4-(6,7-dimethyl-4-(3-(trifluoromethyl)bicyclo-[1.1.1]pentan-1-yl)pteridin-2-yl)tetrahydro-2H-pyran-2-yl)-1-(thiazol-4-yl)pyridin-2(1H)-one], for which the EC50 under setting [1] is under 0.1 µM. The same measure, in the same setting: with `C[C@@H]1CN(c2nc(-c3ccc(F)cc3F)c3sc(N(C)C)nc3n2)C[C@H](c2ccc(=O)n(C)c2)O1` [Example 176, 5-[(2S,6R)-4-[7-(2,4-difluorophenyl)-2-(dimethylamino)thiazolo[4,5-d]pyrimidin-5-yl]-6-methyl-morpholin-2-yl]-1-methyl-pyridin-2-one] the figure was under 0.1 µM; with `Cc1cc2c(-c3ccc(F)cc3F)nc(N3C[C@@H](C)O[C@@H](c4ccc(=O)[nH]c4)C3)cc2nc1C` [Example 192, 5-((2S,6R)-4-(5-(2,4-difluorophenyl)-2,3-dimethyl-1,6-naphthyridin-7-yl)-6-methylmorpholin-2-yl)pyridin-2(1H)-one], 0.1 to 0.5 µM. The same measure, in the same setting: with `COc1nc2c(-c3ccc(C(F)(F)F)cc3F)nc([C@H]3CCO[C@@H](c4ccc(=O)n(C5CC5)c4)C3)nc2nc1C` [Example 134, 1-cyclopropyl-5-[(2R,4S)-4-[4-[2-fluoro-4-(trifluoromethyl)phenyl]-6-methoxy-7-methyl-pteridin-2-yl]tetrahydropyran-2-yl]pyridin-2-one] the figure was under 0.1 µM; with `Cc1nc2nc([C@@H]3CCO[C@H](c4ccc(=O)n(C(C)C)c4)C3)nc(C34CC(C(F)(F)F)(C3)C4)c2nc1C` [Example 78, 1-isopropyl-5-[(2S,4R)-4-[6,7-dimethyl-4-[3-(trifluoromethyl)-1-bicyclo[1.1.1]-pentanyl]pteridin-2-yl]tetrahydropyran-2-yl]pyridin-2-one], under 0.1 µM; with `Cc1cnc2c(C34CC(C(F)(F)F)(C3)C4)nc([C@H]3CCO[C@@H](c4ccc(=O)n(C)c4)C3)nc2n1` [Example 123, 1-methyl-5-((2R,4S)-4-(7-methyl-4-(3-(trifluoromethyl)bicyclo-[1.1.1]pentan-1-yl)pteridin-2-yl)tetrahydro-2H-pyran-2-yl)pyridin-2(1H)-one], under 0.1 µM. The same measure, in the same setting: with `COc1nc2c(C34CC(C(F)(F)F)(C3)C4)nc([C@H]3CCO[C@@H](c4ccc(=O)n(-c5csc(C)n5)c4)C3)nc2nc1C` [Example 153, 5-((2R,4S)-4-(6-methoxy-7-methyl-4-(3-(trifluoromethyl)-bicyclo[1.1.1]pentan-1-yl)pteridin-2-yl)tetrahydro-2H-pyran-2-yl)-1-(2-methylthiazol-4-yl)pyridin-2(1H)-one] the figure was under 0.1 µM; with `Cc1nc2nc([C@H]3CCO[C@H](c4cnc(=O)n(C)c4)C3)nc(C34CC(C(F)(F)F)(C3)C4)c2nc1C` [Example 163, 1-methyl-5-[(2S,4S)-4-[6,7-dimethyl-4-[3-(trifluoromethyl)-1-bicyclo[1.1.1]pentanyl]pteridin-2-yl]tetrahydropyran-2-yl]pyrimidin-2-one], under 0.1 µM; with `[2H]C([2H])([2H])n1cc([C@H]2C[C@@H](c3nc(C4CC45CC5(F)F)c4nc(C)c(C)nc4n3)CCO2)ccc1=O` (stereo partly drawn) [Example 92, 5-((2R,4S)-4-(4-(4,4-difluorospiro[2.2]pentan-1-yl)-6,7-dimethylpteridin-2-yl)tetrahydro-2H-pyran-2-yl)-1-(methyl-d3)pyridin-2(1H)-one], over 0.5 µM. For `Cc1nc2nc(N3C[C@@H](C)O[C@@H](c4ccc(=O)n(C)c4)C3)nc(-c3ccc(F)cc3F)c2nc1C` [Example 16, 5-[(2S,6R)-4-[4-(2,4-difluorophenyl)-6,7-dimethyl-pteridin-2-yl]-6-methyl-morpholin-2-yl]-1-methyl-pyridin-2-one], under setting [1], the EC50 was under 0.1 µM.

Regarding `Cc1nc2nc([C@H]3CCO[C@@H](c4ccc(=O)n(C)c4)C3)nc([C@H]3CC[C@H](F)CC3)c2nc1C` [Example 42, 5-((2R,4S)-4-(4-((1r,4S)-4-fluorocyclohexyl)-6,7-dimethyl-pteridin-2-yl)tetrahydro-2H-pyran-2-yl)-1-methylpyridin-2(1H)-one], the EC50 under setting [1] was under 0.1 µM. Still for that read-out and setting: the value for `Cc1nc2nc([C@H]3CCO[C@@H](c4ccc(=O)n(C)c4)C3)nc(C34CC(Cl)(C3)C4)c2nc1C` (single isomer, unassigned) [Example 40] was under 0.1 µM; that for `CN(C)c1nc2nc([C@H]3CCO[C@@H](c4ccc(=O)n(C)c4)C3)nc(C34CC(C(F)(F)F)(C3)C4)c2n1C` [Example 202, 5-((2R,4S)-4-(8-(dimethylamino)-7-methyl-6-(3-(trifluoromethyl)bicyclo[1.1.1]pentan-1-yl)-7H-purin-2-yl)tetrahydro-2H-pyran-2-yl)-1-methylpyridin-2 (1H)-one] was 0.1 to 0.5 µM; that for `CCCN(CCC)n1cc([C@H]2C[C@@H](c3nc(C45CC(C(F)(F)F)(C4)C5)c4nc(C)c(C)nc4n3)CCO2)ccc1=O` [Example 211, 5-[(2R,4S)-4-[6,7-dimethyl-4-[3-(trifluoromethyl)-1-bicyclo[1.1.1]pentanyl]pteridin-2-yl]tetrahydropyran-2-y1]-1-(dipropylamino)pyridin-2-one] was under 0.1 µM. Same read-out and setting: with `Cc1nc2nc([C@H]3CCO[C@@H](c4ccc(=O)n(C)c4)C3)nc(C34CC(C(F)(F)F)(C3)C4)c2cc1C(F)(F)F` [Example 326, 1-methyl-5-[(2R,4S)-4-[7-methyl-6-(trifluoromethyl)-4-[3-(trifluoromethyl)-1-bicyclo[1.1.1]pentanyl]pyrido[2,3-d]pyrimidin-2-yl]tetrahydropyran-2-yl]pyridin-2-one] the figure was under 0.1 µM; with `C[C@@H]1CN(c2nc(-c3ccc(F)cc3F)c3sc(N(C)C)nc3n2)C[C@H](c2ccc(=O)[nH]c2)O1` [Example 173, 5-[(2S,6R)-4-[7-(2,4-difluorophenyl)-2-(dimethylamino)thiazolo[4,5-d]pyrimidin-5-yl]-6-methyl-morpholin-2-yl]-1H-pyridin-2-one], under 0.1 µM. For `Cc1nc2cc(N3C[C@@H](C)O[C@@H](c4ccc(=O)n(C)c4)C3)nc(-c3ccc(F)cc3F)c2nc1C` [Example 191, 5-((2S,6R)-4-(5-(2,4-difluorophenyl)-2,3-dimethylpyrido[3,4-b]pyrazin-7-yl)-6-methylmorpholin-2-yl)-1-methylpyridin-2 (1H)-one], the 50% effective concentration (EC50) was under 0.1 µM.

Values taken from patent publication US20260356841A1, “HETEROCYCLIC PYRIDINONE COMPOUNDS AS TRIGGERING RECEPTOR EXPRESSED ON MYELOID CELLS 2 AGONISTS AND METHODS OF USE” (Vigil Neuroscience, Inc., priority 2023, published 2026).
